Test [1] concerns Aβ40 in conditioned medium of cells stably expressing Amyloid Precursor Protein (APP). The test is described as follows: In vitro BACE cell-based assay (HEK cell assay), Aβ40 sandwich ELISA. The note with it: Homo sapiens, HEK293, 24 h, inhibition of Aβ40, 24 h incubation, read-out: HEK cell assay (IC50 class). In outline: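 APP-stably expressing cells (40K/well) grown 24 h, then treated 24 h with 10-point doses from 100 μM or 10 μM top (0.1% DMSO). Secreted Aβ40 quantified by sandwich ELISA (pAb40 capture, biotinylated 6E10 detection, europium time-resolved fluorescence); IC50 from percent inhibition versus concentration.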
Background: ELISA stands for enzyme-linked immunosorbent assay.

Test [2] has as its target BACE1 (Homo sapiens, UniProt P56817). Description: In vitro enzymatic BACE FRET assay. Type of test: biochemical. The note with it: beta secretase enzyme 0.2 nM, FRET substrate 50 nM, pH 4.2; read-out: BACE1 FRET assay (IC50 class). In outline:
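Beta-secretase (0.2 nM) was pre-incubated 1 h with serially diluted inhibitor in 0.05 M acetate pH 4.2, 10% DMSO, 100 uM genapol. Then 50 nM quenched peptide FRET substrate was added for 1 h. The reaction was stopped with Tris to neutral pH and fluorescence read ([…]).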

Bounds are passed on as bounds.

Chain of BACE1 (P56817 46-501, species assumed): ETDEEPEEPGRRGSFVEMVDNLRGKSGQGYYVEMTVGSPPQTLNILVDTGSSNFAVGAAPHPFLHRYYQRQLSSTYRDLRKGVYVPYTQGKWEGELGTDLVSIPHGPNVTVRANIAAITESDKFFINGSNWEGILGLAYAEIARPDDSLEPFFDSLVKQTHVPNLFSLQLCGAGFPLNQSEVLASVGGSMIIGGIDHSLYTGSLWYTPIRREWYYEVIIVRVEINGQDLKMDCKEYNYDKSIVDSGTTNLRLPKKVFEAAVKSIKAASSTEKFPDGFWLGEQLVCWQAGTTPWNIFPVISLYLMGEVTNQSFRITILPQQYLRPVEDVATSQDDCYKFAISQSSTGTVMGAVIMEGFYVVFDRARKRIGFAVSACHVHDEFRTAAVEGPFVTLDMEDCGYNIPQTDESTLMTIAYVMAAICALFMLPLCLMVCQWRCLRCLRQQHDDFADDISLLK

For the compound `Cc1cccc(C(N)c2ccccn2)c1-c1ccc2nc(N)c(N3CCOCC3)cc2c1` (stereo not drawn) [Example 196, 6-(2-(amino(pyridin-2-yl)methyl)-6-methylphenyl)-3-morpholinoquinolin-2-amine], the IC50 in test [1] and in test [2] was 100 to 500 nM throughout.

Turning to `Cc1cccc(C(N)c2ncccc2Cl)c1-c1ccc2nc(N)c(N3CCOCC3)cc2c1` (stereo not drawn) [Example 197, 6-(2-(amino(3-chloropyridin-2-yl)methyl)-6-methylphenyl)-3-morpholinoquinolin-2-amine], the 50% inhibitory concentration (IC50) in test [1] and in test [2] was 100 to 500 nM throughout.

In the case of `COc1cccnc1C(N)c1cccc(C)c1-c1ccc2nc(N)c(N3CCOCC3)cc2c1` (stereo not drawn) [Example 198, 6-(2-(amino(3-methoxypyridin-2-yl)methyl)-6-methylphenyl)-3-morpholinoquinolin-2-amine], the IC50 (as a rule, the concentration needed to halve the response being measured) was less than 100 nM in test [1] and 100 to 500 nM in test [2].

`Cc1cccc(C(O)c2ccccc2)c1-c1ccc2nc(N)c(N3CCOCC3)cc2c1` (stereo not drawn) [Example 199, (2-(2-amino-3-morpholinoquinolin-6-yl)-3-methylphenyl)(phenyl)methanol]: the IC50 in test [1] was 100 to 500 nM; in test [2] it was less than 100 nM.

With `Cc1cccc(Cc2cccc(C#N)c2)c1-c1ccc2nc(N)c(N3CCOCC3)cc2c1` [Example 200, 3-(2-(2-amino-3-morpholinoquinolin-6-yl)-3-methylbenzyl)benzonitrile], the IC50 in test [1] was 1010 to 5000 nM; in test [2] it was less than 100 nM.

Turning to `Cc1cccc(Cc2ccc(F)cc2)c1-c1ccc2nc(N)c(N3CCOCC3)cc2c1` [Example 201, 6-(2-(4-fluorobenzyl)-6-methylphenyl)-3-morpholinoquinolin-2-amine], the IC50 is 1010 to 5000 nM in test [1] and less than 100 nM in test [2].

With `Cc1cccc(Cc2ccccc2F)c1-c1ccc2nc(N)c(N3CCOCC3)cc2c1` [Example 202, 6-(2-(2-fluorobenzyl)-6-methylphenyl)-3-morpholinoquinolin-2-amine], the IC50 is 1010 to 5000 nM in test [1] and less than 100 nM in test [2].

As to `COc1cccc(Cc2cccc(C)c2-c2ccc3nc(N)c(N4CCOCC4)cc3c2)c1` [Example 203, 6-(2-(3-methoxybenzyl)-6-methylphenyl)-3-morpholinoquinolin-2-amine], the IC50 in test [1] is greater than 5000 nM; in test [2], less than 100 nM.

As to `Cc1cccc(-n2cc(Cl)cn2)c1-c1ccc2nc(N)c(N3CCOCC3)cc2c1` [Example 204, 6-(2-(4-chloro-1H-pyrazol-1-yl)-6-methylphenyl)-3-morpholinoquinolin-2-amine], the IC50 is greater than 5000 nM in test [1] and 501 to 1000 nM in test [2].

As to `Cc1cccc(C(=O)N2CCCC2)c1-c1ccc2nc(N)c(C3CCOC(C)(C)C3)cc2c1` (stereo not drawn) [Example 205, (2-(2-amino-3-(2,2-dimethyltetrahydro-2H-pyran-4-yl)quinolin-6-yl)-3-methylphenyl)(pyrrolidin-1-yl)methanone], the concentration for half-maximal inhibition (IC50) in test [1] and in test [2] was less than 100 nM each time.

Consider `Cc1cccc(C(=O)N2CCCC2)c1-c1ccc2nc(N)c(C3CCCOCC3)cc2c1` (stereo not drawn) [Example 206, (2-(2-amino-3-(oxepan-4-yl)quinolin-6-yl)-3-methylphenyl)(pyrrolidin-1-yl)methanone], for which the IC50 in test [1] is 100 to 500 nM; in test [2], less than 100 nM.

Regarding `Cc1cccc(C(=O)N2CCCC2)c1-c1ccc2nc(N)c(C3CCCO3)cc2c1` (stereo not drawn) [Example 207, (2-(2-amino-3-(tetrahydrofuran-2-yl)quinolin-6-yl)-3-methylphenyl)(pyrrolidin-1-yl)methanone], the concentration for half-maximal inhibition (IC50) in test [1] was in the range of 1010 to 5000 nM; in test [2] it was 100 to 500 nM.

In the case of `Cc1cccc(COc2cc(C(F)(F)F)ccc2Cl)c1-c1ccc2nc(N)c(N3CCOCC3)cc2c1` [Example 208, 6-(2-((2-chloro-5-(trifluoromethyl)phenoxy)methyl)-6-methylphenyl)-3-morpholinoquinolin-2-amine], the IC50 in test [1] was 100 to 500 nM; in test [2], less than 100 nM.

As for `Cc1cccc(C(=O)N2CCCC2)c1-c1ccc2nc(N)c(N3CCOC(C)C3C)cc2c1` (stereo not drawn) [Example 209, (2-(2-amino-3-(2,3-dimethylmorpholino)quinolin-6-yl)-3-methylphenyl)(pyrrolidin-1-yl)methanone], the IC50 in test [1] was 501 to 1000 nM; in test [2], less than 100 nM.

Turning to `Cc1cccc(C(=O)N2CCCC2)c1-c1ccc2nc(N)c(N3CCOC[C@@H]3C)cc2c1` [Example 210, (S)-(2-(2-amino-3-(3-methylmorpholino)quinolin-6-yl)-3-methylphenyl)(pyrrolidin-1-yl)methanone], the IC50 in test [1] was in the range of 1010 to 5000 nM; in test [2], 501 to 1000 nM.

`Cc1cccc(C(=O)N2CCC(F)(F)C2)c1-c1ccc2nc(N)c(C3CCOCC3)cc2c1` [Example 211, (2-(2-amino-3-(tetrahydro-2H-pyran-4-yl)quinolin-6-yl)-3-methylphenyl)(3,3-difluoropyrrolidin-1-yl)methanone]: the IC50 in test [1] is 100 to 500 nM; in test [2], less than 100 nM.

Consider `COc1ccccc1C(=O)c1cccc(C)c1-c1ccc2nc(N)c(C3CCOCC3)cc2c1` [Example 212, (2-(2-amino-3-(tetrahydro-2H-pyran-4-yl)quinolin-6-yl)-3-methylphenyl)(2-methoxyphenyl)methanone], for which the IC50 in test [1] and in test [2] was less than 100 nM in each case.

On to `Cc1cccc(C(=O)N2CCCC2)c1-c1ccc2nc(N)c(N3CCOC(CC(C)C)C3)cc2c1` (stereo not drawn) [Example 213, (2-(2-amino-3-(2-isobutylmorpholino)quinolin-6-yl)-3-methylphenyl)(pyrrolidin-1-yl)methanone], for which the IC50 was 1010 to 5000 nM in test [1] and less than 100 nM in test [2].

As for `COCCC1CN(c2cc3cc(-c4c(C)cccc4C(=O)N4CCCC4)ccc3nc2N)CCO1` (stereo not drawn) [Example 214, (2-(2-amino-3-(2-(2-methoxyethyl)morpholino)quinolin-6-yl)-3-methylphenyl)(pyrrolidin-1-yl)methanone], the IC50 is 100 to 500 nM in test [1] and less than 100 nM in test [2].

`Cc1cccc(C(=O)N2CCCC2)c1-c1ccc2nc(N)c(N3CCOC(C)(C)C3)cc2c1` [Example 215, (2-(2-amino-3-(2,2-dimethylmorpholino)quinolin-6-yl)-3-methylphenyl)(pyrrolidin-1-yl)methanone]: the half-inhibitory concentration (IC50) is 501 to 1000 nM in test [1] and less than 100 nM in test [2].

For `Cc1ccc(C2(C)CN(c3cc4cc(-c5c(C)cccc5C(=O)N5CCCC5)ccc4nc3N)CCO2)cc1` (stereo not drawn) [Example 217, (2-(2-amino-3-(2-methyl-2-p-tolylmorpholino)quinolin-6-yl)-3-methylphenyl)(pyrrolidin-1-yl)methanone], the IC50 in test [1] lay in the range of 1010 to 5000 nM; in test [2] it was 100 to 500 nM.

As to `Cc1ccccc1-c1ccc2nc(N)c(N3CCOCC3)cc2c1` [Example 218, 3-morpholino-6-o-tolylquinolin-2-amine], the values for the IC50 in test [1] and in test [2] were greater than 5000 nM and 501 to 1000 nM, respectively.

On to `Nc1nc2ccc(-c3ccccc3Cl)cc2cc1N1CCOCC1` [Example 219, 6-(2-chlorophenyl)-3-morpholinoquinolin-2-amine], for which the values for the IC50 in test [1] and in test [2] were greater than 5000 nM and 501 to 1000 nM, respectively.

For the compound `Nc1nc2ccc(-c3ccccc3F)cc2cc1N1CCOCC1` [Example 220, 6-(2-fluorophenyl)-3-morpholinoquinolin-2-amine], the IC50 in test [1] is greater than 5000 nM; in test [2], 1010 to 5000 nM.

The values above are taken from US8735384B2, “Amino heteroaryl compounds as beta-secretase modulators and methods of use” (Amgen Inc., priority 2010, dated 2014).
